Results reported in patent US9587220B2, “Method for inducing cardiac differentiation of pluripotent stem cell” (Kyoto University, priority 2012, dated 2017).
Entries after “also recorded” stand apart in the source; their conditions may differ.

Assays:
[1] = test system: TCF promoter activity in HEK293 cells; test: TOPflash TCF reporter assay in HEK293 cells; format: cell-based, human; conditions: 10 μM
Description: For the TCF reporter assay, IMR90-1 hiPSCs were cultured in the serum-containing differentiation culture, as described above, and transfected with TOPFlash plasmid (Millipore 21-170) and pRL-SV40 plasmid (Renilla luciferase transfection control, Promega E1980) on Day 2, using FuGENE HD transfection Reagenet (Promega E2311). After 24 h, 10 μM KY02111, 10 μM XAV939, or 10 μM IWP-2 was added to the medium, along with either 60 ng ml^−1 of mouse Wnt3a (Wako 232-02421) or 3 μM BIO. After 48 h of transfection (Day 4), luciferase activities were measured using a Dual-Luciferase Reporter 1000 Assay System kit (Promega E1980) and a 2030 ARVO X3 plate reader (PerkinElmer). Luciferase activities were normalized to the luminescence of the transfection control, Rennila luciferase, according to the kit protocol. For experiments using HEK293 cells, the cells were cultured in 10% FBS DMEM medium, and transfected with TOPflash and pRL-SV40 plasmid, using FuGENE HD. After 24 h, the transfected cells were seeded onto 96-well plates (10,000 cells well^−1) in medium containing 10 μM KY02111, 10 μM XAV939, or 10 μM IWP-2, along with 3 μM BIO or 60 ng ml^−1 mouse Wnt3a. Luciferase activities were measured 48 h after transfection by the procedure described above.

IMR90-1 hiPSCs = test: Cardiac differentiation with BIO and CHIR99021 (Days 0-3) followed by WNT inhibitors, serum-free or serum medium; format: cell-based, human
Description: After pre-culture in Petri dishes as described above, cell aggregates were attached to culture dishes coated with gelatin (Sigma G2625) or human laminin 211 (BioLamina, Sweden) at 3-10×10^5 cells cm^-2, in serum-free cardiac differentiation medium: IMDM (Sigma) containing 1% MEM non-essential amino acid solution (Sigma), 1% Penicillin-Streptomycin (Gibco), 2 mM L-glutamine (Sigma), 0.5 mM L-carnitine (Sigma), 0.001% 2-Mercapcoethanol (Gibco), and 1-2% bovine serum albumin (Wako, Japan) or 0.4% human serum albumin (Sigma), with 5 μM CHIR99021 (Axon) and 2 μM BIO (Calbiochem). On Days 3-9, 10 μM KY02111 and/or other WNT inhibitors (XAV939 and/or IWP-2) were added to cell cultures, and the medium was changed every 2 d. On Day 15, the cardiac colonies were incubated with the protease solution for 5-10 min, until all colonies were detached from the bottom of the wells. The cardiac colonies were transferred into 15 ml tubes with cardiac differentiation medium including 0.1% albumin, and precipitated by gravity, the supernatant was removed, and the cardiac colonies were transferred to Ultra-low culture 6-well plates (Corning, YO-01835-24) with cardiac differentiation medium including 0.1% albumin. The floating cardiac colonies were maintained for more than 1 month, and the media were changed every 5 d. Cardiac colonies were dissociated by stirring for 1-2 h at 37° C. with the protease solution described above, cultured for 1 d on cover glasses coated with gelatin (Sigma), and fixed with 4% paraformaldehyde. After permeabilizing with Triton X, the cells were treated with 2% skim milk for 1-2 h, then incubated with primary antibodies for 2 h: NKX2.5 (rabbit polyclonal, 1:250; Abcam), αActinin (mouse monoclonal, 1:800; Sigma), cardiac TnT (mouse monoclonal, 1:100; Santa Cruz Biotechnology), Vimentin (mouse monoclonal, 1:800; Sigma V6630), and HCN4 (mouse monoclonal, 1:400; Abcam). The secondary antibodies used were Alexa546-conjugated anti-mouse IgG, Alexa488-conjugated anti-mouse IgG, and Alexa488-conjugated anti-rabbit IgG (1:1000; all from Molecular Probes, Invitrogen). Nuclei were visualized by DAPI. Images were captured under fluorescent microscopy (Olympus). The number of cTnT, αActinin, NKX2.5, HCN4, and Vimentin-positive cells were counted from three random areas, using the Metamorph imaging system (Molecular Devices). Approximately 1000 DAPI-stained cells were used to calculate the proportion of immunopositive cells (the number of immunopositive cells divided by the number of DAPI-stained cells). […] Cells were analyzed using a FACS CantoII flow cytometer (BD Biosciences). Data was analyzed using […] software (BD Biosciences).

For `COc1ccc(CCC(=O)Nc2nc3ccc(Cl)cc3s2)cc1OC` [KY02111, 2-(3-(3,4-dimethoxyphenyl)propanamide)-6-chlorobenzothiazole], the “TCF promoter activity by Wnt3a” value ([1]; with 60 ng/ml Wnt3a) was “enhanced luciferase activity; also recorded: further augmented”, the “TCF promoter activity by BIO” value ([1]; with 3 μM BIO) was “cancelled WNT activation by BIO; also recorded: inhibited” and the “number of beating colonies and total number of cardiomyocytes, defined medium (Alb) versus serum-containing medium (FBS)” value (IMR90-1 hiPSCs; FIG. 4e) was “increased more in defined medium (Alb)”. The “proportion of cTnT-positive cells by immunostaining” value (IMR90-1 hiPSCs; albumin (serum-free)) was 93.3%±4.4, the “differentiation efficiency (cTnT-positive cells) by FACS” value (IMR90-1 hiPSCs; cytokine- and serum-free conditions) was 90.2% and the “differentiation efficiency (cTnT-positive cells)” value (IMR90-1 hiPSCs; with serum (FBS)) was 83.7%±8.0.
